Results taken from patent US20240245677A1, “SELECTED COMPOUNDS FOR TARGETED DEGRADATION OF BRD9” (C4 THERAPEUTICS, INC., priority 2021, published 2024).
Where “and” joins values, the source holds several entries; their conditions need not be identical. Equal values may be shown once. Read-outs that look alike come from different tables or passages of the source.

Assay: Pharmacokinetic study in male CD1 mice
Format: in vivo, mouse
Conditions: for concentration at 0.033 h / concentration at 0.33 h / concentration at 1 h / concentration at 2 h / concentration at 4 h / concentration at 8 h / concentration at 24 h / AUC(0-t): male, CD1, mouse
Description: The pharmacokinetic (PK) profile in plasma of Compound 1 was determined in male CD1 mice following single dose intravenous (IV) (2 mg/kg) and per os (PO) (10 mg/kg) administration. This study was performed under non-GLP conditions, and unless otherwise stated, all analytical reagents were at least standard laboratory reagent grade, and deionized water was prepared at the study site. The characteristics of Compound 1 used in this study were as follows: molecular weight of base, 710.78; molecular weight of Compound 1 with salt, 824.81; purity on as is basis, 99.28%. All animals were housed in cages with clean bedding and maintained and monitored for good health and at the discretion of the laboratory animal veterinarian. Certified rodent diet was provided, and water was available ad libitum. […] Normal healthy animals certified by the attending veterinarian were selected and acclimatized for a minimum of three days prior to initiation of the study. Animals were identified by body markings. Test animals were weighed prior to drug administration, and the standard weight of the animals used was 30 grams. The animals were divided into two groups, IV group and PO group, with each group containing 3 test animals each and 2 spare animals. The IV dose was administered by intravenous injection into the tail vein and PO dose was administered via oral gavage. The dosing volume was 5 mL/kg body weight for both groups. The dosing concentration was 0.4 mg/mL for the IV group and 2 mg/mL for the PO group. The animals were in fasted state during the study. For both dosing groups, blood was collected from the saphenous vein (serial sampling) for plasma isolation at 0.033, 0.33, 1, 2, 4, 6, 8, and 24 hour timepoints. The anti-coagulant solution used was 6% (v/v) sodium citrate (200 mM, pH 4.79). For sample collection, the mice were restrained, and the back of the hind leg was shaved until the saphenous vein was visible. The hind limb was immobilized, and slight pressure was applied gently above the knee joint. While taking aseptic precautions, the vein was punctured using a 20 G needle and 20-30 μL of blood was collected in pre-labeled pre-chilled tubes. After blood collection from each animal, the sample from that animal was recorded in the sample collection sheet. After collection of each blood sample, the blood sample was stored on ice prior to centrifugation. Blood samples were centrifuged within 0.5 hours of collection to separate plasma. Centrifugation was conducted at 2500×g for 15 minutes at 4° C. The plasma was separated and transferred to pre-labeled micro-centrifuge tubes and promptly frozen at -80° C.±10° C. and stored until bioanalysis was performed. Each sample was identified by test compound, group, animal number, and collection time point. A fit-for-purpose bioanalytical method was developed for analyzing the plasma samples. One set of nine standards was run before the sample batch and was used for plotting the calibration curve. Quality control (QC) samples were prepared at a minimum of three concentrations, i.e., LQC (not more than 5 times to that of lowest standard concentration), HQC (not less than 75% of the highest standard concentration), and MQC (between the low and high concentration). A minimum of 6 QC samples were prepared (three concentrations in duplicate). One set of QC (LQC, MQC and HQC) samples were analyzed before and after the sample batch. Samples were analyzed by Exion AD (Sciex, Framingham, MA, USA) high-pressure liquid chromatography (HPLC) system followed by tandem mass spectroscopy analysis (MS/MS) with Q TRAP 4500 (Sciex, Framingham, MA). The samples were resolved on a Kinetex® EVO C18 4.5*50 mm, 5 μm column (Phenomenex, Inc., Torrance, CA, USA). […] The flow rate was set at 1 mL/min. […] A positive electrospray ionization (ESI) method was used for detecting analytes and internal standard by mass spectroscopy. The MRM conditions were […]

[1] = mouse, plasma, male CD1 mice, 2 mg/kg IV, Mean
[2] = mouse, plasma, male CD1 mice, 10 mg/kg PO, Mean

## COc1cc(-c2cn(C)c(=O)c(C)c2C)cc(OC)c1CN1CC[C@H](N2CCN(c3ccc(N[C@H]4CCC(=O)NC4=O)cc3F)CC2)C(F)(F)C1 [Compound 1, (S)-3-((4-(4-((S)-1-(2,6-dimethoxy-4-(1,4,5-trimethyl-6-oxo-1,6-dihydropyridin-3-yl)benzyl)-3,3-difluoropiperidin-4-yl)piperazin-1-yl)-3-fluorophenyl)amino)-piperidine-2,6-dione]
2 mg/kg IV, 0.033 h
  Plasma Concentration, individual mice: 1282.85 ng/mL and 1230.25 ng/mL
2 mg/kg IV, 0.33 h
  Plasma Concentration, individual mice: 1069.92 ng/mL and 907.03 ng/mL
2 mg/kg IV, 1 h
  Plasma Concentration, individual mice: 778.91 ng/mL and 554.87 ng/mL
2 mg/kg IV, 2 h
  Plasma Concentration, individual mice: 530.20 ng/mL and 551.12 ng/mL
2 mg/kg IV, 4 h
  Plasma Concentration, individual mice: 402.36 ng/mL and 398.41 ng/mL
2 mg/kg IV, 8 h
  Plasma Concentration, individual mice: 230.84 ng/mL and 279.05 ng/mL
2 mg/kg IV, 24 h
  Plasma Concentration, individual mice: 8.14 ng/mL and 10.81 ng/mL
10 mg/kg PO, 0.033 h
  Plasma Concentration, individual mice: 113.39 ng/mL and 45.23 ng/mL and 29.34 ng/mL
10 mg/kg PO, 0.33 h
  Plasma Concentration, individual mice: 1350.89 ng/mL and 1805.33 ng/mL
10 mg/kg PO, 1 h
  Plasma Concentration, individual mice: 3702.63 ng/mL and 3513.39 ng/mL
10 mg/kg PO, 2 h
  Plasma Concentration, individual mice: 3236.77 ng/mL and 3069.59 ng/mL
10 mg/kg PO, 4 h
  Plasma Concentration, individual mice: 1775.48 ng/mL and 1635.06 ng/mL
10 mg/kg PO, 8 h
  Plasma Concentration, individual mice: 1094.97 ng/mL and 687.92 ng/mL
10 mg/kg PO, 24 h
  Plasma Concentration, individual mice: 40.19 ng/mL and 35.09 ng/mL
Male CD1 mice, 2 mg/kg IV, Mean
  CI: 6.201 mL/min/kg
plasma, intravenous, 2 mg/kg, 2 mg/kg IV, 0.033 h, read-out: Plasma Concentration, Average
  concentration at 0.033 h: 1400 ng/mL
plasma, intravenous, 2 mg/kg, 2 mg/kg IV, 0.033 h, read-out: Plasma Concentration, individual mice
  concentration at 0.033 h: 1690 ng/mL
plasma, intravenous, 2 mg/kg, 2 mg/kg IV, 0.33 h, read-out: Plasma Concentration, Average
  concentration at 0.33 h: 1090 ng/mL
plasma, intravenous, 2 mg/kg, 2 mg/kg IV, 0.33 h, read-out: Plasma Concentration, individual mice
  concentration at 0.33 h: 1300 ng/mL
plasma, intravenous, 2 mg/kg, 2 mg/kg IV, 1 h, read-out: Plasma Concentration, Average
  concentration at 1 h: 760 ng/mL
plasma, intravenous, 2 mg/kg, 2 mg/kg IV, 1 h, read-out: Plasma Concentration, individual mice
  concentration at 1 h: 947 ng/mL
plasma, intravenous, 2 mg/kg, 2 mg/kg IV, 2 h, read-out: Plasma Concentration, Average
  concentration at 2 h: 630 ng/mL
plasma, intravenous, 2 mg/kg, 2 mg/kg IV, 2 h, read-out: Plasma Concentration, individual mice
  concentration at 2 h: 809 ng/mL
plasma, intravenous, 2 mg/kg, 2 mg/kg IV, 4 h, read-out: Plasma Concentration, Average
  concentration at 4 h: 456 ng/mL
plasma, intravenous, 2 mg/kg, 2 mg/kg IV, 4 h, read-out: Plasma Concentration, individual mice
  concentration at 4 h: 567 ng/mL
plasma, intravenous, 2 mg/kg, 2 mg/kg IV, 8 h, read-out: Plasma Concentration, Average
  concentration at 8 h: 256 ng/mL
plasma, intravenous, 2 mg/kg, 2 mg/kg IV, 8 h, read-out: Plasma Concentration, individual mice
  concentration at 8 h: 257 ng/mL
plasma, intravenous, 2 mg/kg, 2 mg/kg IV, 24 h, read-out: Plasma Concentration, Average
  concentration at 24 h: 10.2 ng/mL
plasma, intravenous, 2 mg/kg, 2 mg/kg IV, 24 h, read-out: Plasma Concentration, individual mice
  concentration at 24 h: 11.5 ng/mL
plasma, iv, 2 mg/kg, male CD1 mice, 2 mg/kg IV, Mean
  AUC(0-t): 5390 ng·h/mL
plasma, oral, 10 mg/kg, 10 mg/kg PO, 0.033 h, read-out: Plasma Concentration, Average
  concentration at 0.033 h: 62.7 ng/mL
plasma, oral, 10 mg/kg, 10 mg/kg PO, 0.33 h, read-out: Plasma Concentration, Average
  concentration at 0.33 h: 1750 ng/mL
plasma, oral, 10 mg/kg, 10 mg/kg PO, 0.33 h, read-out: Plasma Concentration, individual mice
  concentration at 0.33 h: 2100 ng/mL
plasma, oral, 10 mg/kg, 10 mg/kg PO, 1 h, read-out: Plasma Concentration, Average
  concentration at 1 h: 3370 ng/mL
plasma, oral, 10 mg/kg, 10 mg/kg PO, 1 h, read-out: Plasma Concentration, individual mice
  concentration at 1 h: 2890 ng/mL
plasma, oral, 10 mg/kg, 10 mg/kg PO, 2 h, read-out: Plasma Concentration, Average
  concentration at 2 h: 3150 ng/mL
plasma, oral, 10 mg/kg, 10 mg/kg PO, 2 h, read-out: Plasma Concentration, individual mice
  concentration at 2 h: 3150 ng/mL
plasma, oral, 10 mg/kg, 10 mg/kg PO, 4 h, read-out: Plasma Concentration, Average
  concentration at 4 h: 1770 ng/mL
plasma, oral, 10 mg/kg, 10 mg/kg PO, 4 h, read-out: Plasma Concentration, individual mice
  concentration at 4 h: 1880 ng/mL
plasma, oral, 10 mg/kg, 10 mg/kg PO, 8 h, read-out: Plasma Concentration, Average
  concentration at 8 h: 983 ng/mL
plasma, oral, 10 mg/kg, 10 mg/kg PO, 8 h, read-out: Plasma Concentration, individual mice
  concentration at 8 h: 1170 ng/mL
plasma, oral, 10 mg/kg, 10 mg/kg PO, 24 h, read-out: Plasma Concentration, Average
  concentration at 24 h: 37.8 ng/mL
plasma, oral, 10 mg/kg, 10 mg/kg PO, 24 h, read-out: Plasma Concentration, individual mice
  concentration at 24 h: 38.2 ng/mL
plasma, po, 10 mg/kg, male CD1 mice, 10 mg/kg PO, Mean, first AUClast column
  AUC(0-t): 20000 ng·h/mL
plasma, po, 10 mg/kg, male CD1 mice, 10 mg/kg PO, Mean, second AUClast column
  AUC(0-t): 20200 ng·h/mL
[1]
  AUC(0-inf): 5450 ng·h/mL
  C0: 1440 ng/mL
  MRT last: 5.15 h
  half-life: 3.65 h
mouse, plasma, male CD1 mice, 2 mg/kg IV, Mean, read-out: Vdss
  Vd: 2.01 L/kg
[2]
  Cmax: 3460 ng/mL
  MRT last: 5.38 h
  Tmax: 1.33 h
  bioavailability: 74.1%
  half-life: 3.54 h
